Laboratory results reported in patent US5962294A, “Compositions and methods for the identification and synthesis of sialyltransferases” (The Regents of the University of California, priority 1993, dated 1999).
Residue numbers refer to the chain shown, from its start. Entries after “also recorded” stand apart in the source; their conditions may differ.

B1: Form A: 48 kDa molecular weight form of the porcine liver α2,3 sialyltransferase (protein)
chain: TLKLLTLLVLFIFLTSFFLNYSHTVVTTAWFPKQMVIELSENFKKLMKYPYRPCTCTRCIEEQRVSAWFDERFNRSMQPLLTAKNAHLEEDTYKWWLRLQREKQPNNLNDTIRELFQVVPGNVDPLLEKRLVSCRRCAVVGNSGNLKESYYGPQIDSHDFVLRMNKAPTEGFEADVGSKTTHHFVYPESFRELAQEVSMILVPFKTTDLEWVISATTTGTISHTYVPVPAKIKVKKEKILIYHPAFIKYVFDRWLQGHGRYPSTGILSVIFSLHICDEVDLYGFGADSKGNWHHYWENNPSAGAFRKTGVHDGDFESNVTTILASINKIRIFKGR
B2: porcine Galβ1,3GalNAc α2,3 sialyltransferase (protein)
chain: NYSHTVVTTAWFPKQMVIELSENFKKLMKYPYRPCTCTRCIEEQRVSAWFDERFNRSMQPLLTAKNAHLEEDTYKWWLRLQREKQPNNLNDTIRELFQVVPGNVDPLLEKRLVSCRRCAVVGNSGNLKESYYGPQIDSHDFVLRMNKAPTEGFEADVGSKTTHHFVYPESFRELAQEVSMILVPFKTTDLEWVISATTTGTISHTYVPVPAKIKVKKEKILIYHPAFIKYVFDRWLQGHGRYPSTGILSVIFSLHICDEVDLYGFGADSKGNWHHYWENNPSAGAFRKTGVHDGDFESNVTTILASINKIRIFKGR

How the values were obtained:
[1] = target: T1, ST3O (Sus scrofa, UniProt Q02745); assay: Acceptor specificity of ST3O (Table 4); details: for Relative rate (%) ST30: acceptor 0.2 mM
T1 sequence (Q02745 28-343 limits assumed): B2 chain with T201R

[2] = target: T2, ST3N (Rattus norvegicus, UniProt Q02734); assay: Acceptor specificity of ST3N (Table 4)
T2 sequence (Q02734 29-374 limits assumed): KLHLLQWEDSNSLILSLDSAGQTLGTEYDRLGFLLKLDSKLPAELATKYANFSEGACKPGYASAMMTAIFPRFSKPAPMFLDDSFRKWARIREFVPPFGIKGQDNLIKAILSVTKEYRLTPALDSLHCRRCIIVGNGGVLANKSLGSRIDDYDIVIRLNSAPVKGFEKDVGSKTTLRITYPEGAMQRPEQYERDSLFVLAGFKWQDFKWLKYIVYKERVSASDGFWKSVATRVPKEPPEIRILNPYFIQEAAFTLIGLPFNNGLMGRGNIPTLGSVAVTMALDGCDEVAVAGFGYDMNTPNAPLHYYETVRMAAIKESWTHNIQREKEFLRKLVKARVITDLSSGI

[3] = target: T3, rat ST3N (Rattus norvegicus, UniProt Q02734); assay: Acceptor specificity of soluble rat ST3N fusion protein (Table 3); details: acceptor 0.2 mM; relative to LNT
T3 sequence (Q02734 29-374 limits assumed): T2 sequence (Q02734 29-374 limits assumed)

[4] = target: T4, human ST3N (Homo sapiens, UniProt Q11203); assay: Acceptor specificity of soluble human ST3N (protein A fusion from COS-1 cells, on IgG Sepharose); details: acceptor 0.2 mM; relative to LNT
T4 sequence (Q11203 62-375): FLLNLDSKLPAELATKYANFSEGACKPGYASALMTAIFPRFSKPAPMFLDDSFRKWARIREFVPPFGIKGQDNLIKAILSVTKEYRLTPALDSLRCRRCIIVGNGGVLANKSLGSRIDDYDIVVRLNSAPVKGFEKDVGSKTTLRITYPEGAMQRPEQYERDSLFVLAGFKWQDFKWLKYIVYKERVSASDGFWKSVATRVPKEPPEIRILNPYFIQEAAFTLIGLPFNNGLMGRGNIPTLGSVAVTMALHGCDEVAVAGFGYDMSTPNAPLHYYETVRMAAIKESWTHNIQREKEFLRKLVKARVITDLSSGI

[5] = target: T5, ST3 (Homo sapiens, UniProt Q11206); assay: Acceptor specificity of soluble ST3 (AZ3, concentrated COS-1 media); format: biochemical; details: for Relative rate (%) ST3: acceptor 0.2 mM
T5 construct: A truncated form of ST3, lacking the first 39 amino acids of the long-form open reading frame; made in house; host or cells: COS-1 (concentrated culture medium)
T5 sequence (Q11206 41-333): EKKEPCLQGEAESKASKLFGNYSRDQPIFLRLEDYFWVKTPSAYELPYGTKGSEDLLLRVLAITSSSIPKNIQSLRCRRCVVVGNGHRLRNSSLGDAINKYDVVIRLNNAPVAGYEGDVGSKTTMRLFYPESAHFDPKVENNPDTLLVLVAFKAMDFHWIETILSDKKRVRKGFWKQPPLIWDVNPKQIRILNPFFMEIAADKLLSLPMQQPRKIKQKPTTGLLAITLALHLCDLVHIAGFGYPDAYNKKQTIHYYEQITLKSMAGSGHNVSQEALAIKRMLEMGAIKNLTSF

[6] = test system: acceptor substrate antifreeze glycoprotein (AFGP); assay: Sialyltransferase activity of purified porcine liver α2,3-0 sialyltransferase; format: biochemical; details: after third CDP-hexanolamine agarose column
Description: FIG. 4 Purification of the α2,3-0 sialyltransferase on CDP-hexanolamine agarose (column III, CDP elution). […] In columns A and B elution of enzyme activity correlated predominantly with 48 kDa and a 45 kDa protein species, respectively (see inset, SDS-PAGE). These two species, form A and form B of the α2,3 sialyltransferase, had specific activities of 8-10 units/mg protein. The 48 kDA and 45 kDA species were blotted to a PVDF membrane and analyzed by NH2 -terminal sequencing.
The enzyme was purified from a porcine liver Triton X-100 extract by affinity chromatography on three successive columns of CDP-hexanolamineagarose. The elution profile from the first and third purification steps are shown in FIG. 3 and FIG. 4, respectively. […] These two peaks were separated by combining the indicated fractions into pools A and B, these two pools were subsequently found to be enriched in two different molecular weight forms of the α2,3-0 sialyltransferase.
The membranes were extracted three times with buffer (Conradt, H. S. et al., in Sialic Acids 1988 Proceedings of the Japanese-German Symposium on Sialic Acids (Schauer and Yamakawa, eds.) pp. 104-105, Verlag Wissenschaft and Bildung, Kiel [1988]) and the extract was passed over a 1.5 l CDP-hexanolamine agarose column (column 1) (16 umol/ml). After washing the column with 3 L buffer B, the column was eluted with a linear gradient of 0.05 to 1.0 M KCL (2.5 l×2.5 l) in buffer B. Fractions containing α2,3 sialyltransferase were combined into two pools A and B, representing the main part and the trailing end of the peak, respectively (see FIG. 3). The pools were dialysed against buffer B and subjected to another round of affinity chromatography on CDP-hexanolamine agarose (columns IIA and IIB). A 150 ml column was used for pool A and a 30 ml column was used for pool B; two preparations from column I (from total of 4 kg liver) were loaded on the same column in step II. […]

Molecule	Relative rate (%) ST30 [1] [%]	Relative rate (%) ST3N ([2]; acceptor 0.2 mM) [%]	acceptor substrate for ST3 enzyme (in words) [5]	further results
CC(=O)N[C@H]1[C@H](O[C@H]2[C@@H](O)[C@@H](CO)O[C@@H](O[C@H]3[C@H](O)[C@@H](O)C(O)O[C@@H]3CO)[C@@H]2O)O[C@H](CO)[C@@H](O[C@@H]2O[C@@H](C)[C@@H](O)[C@@H](O)[C@@H]2O)[C@@H]1O[C@@H]1O[C@H](CO)[C@H](O)[C@H](O)[C@H]1O (stereo partly drawn) [Galβ1,3(Fucα1,4)GlcNAcβ1,3Galβ1,4Glc]	0	0	–	Relative rate (%) ST3N ([2]; acceptor 2.0 mM): 0%
CC(=O)N[C@H]1C(O)O[C@H](CO)[C@H](O)[C@@H]1O[C@@H]1O[C@H](CO)[C@H](O)[C@H](O)[C@H]1O (stereo partly drawn) [Galβ1,3GalNAc]	100	3	–	Relative rate (%) ST3N ([2]; acceptor 2.0 mM): 10%
CC(=O)N[C@H]1C(O)O[C@H](CO)[C@@H](O)[C@@H]1O[C@@H]1O[C@H](CO)[C@H](O)[C@H](O)[C@H]1O (stereo partly drawn) [Galβ1,3GlcNAc]	2	49	–	Relative activity (%) Rat [3]: 49%; Relative activity (%) Human [4]: 48%
CC(=O)N[C@H]1[C@H](O[C@H]2[C@@H](O)[C@@H](CO)O[C@@H](O[C@H]3[C@H](O)[C@@H](O)C(O)O[C@@H]3CO)[C@@H]2O)O[C@H](CO)[C@@H](O)[C@@H]1O[C@@H]1O[C@H](CO)[C@H](O)[C@H](O)[C@H]1O (stereo partly drawn) [Galβ1,3GlcNAcβ1,3Galβ1,4Glc (LNT), Galβ1,3GlcNAcβ1,3Galβ1,4Glc]	0.5	100	–	Relative rate (%) ST3N ([2]; acceptor 2.0 mM): 100%; Relative activity (%) Rat [3]: 100%
CC(=O)N[C@H]1[C@H](O[C@H]2[C@@H](O)[C@@H](CO)O[C@@H](O[C@H]3[C@H](O)[C@@H](O)C(O)O[C@@H]3CO)[C@@H]2O)O[C@H](CO)[C@@H](O[C@@H]2O[C@H](CO)[C@H](O)[C@H](O)[C@H]2O)[C@@H]1O[C@@H]1O[C@@H](C)[C@@H](O)[C@@H](O)[C@@H]1O (stereo partly drawn) [Galβ1,4(Fucα1,3)GlcNAcβ1,3Galβ1,4Glc]	0	0	–	Relative rate (%) ST3N ([2]; acceptor 2.0 mM): 0%
CC(=O)N[C@H]1[C@H](O[C@H]2[C@@H](O)[C@@H](CO)O[C@@H](O[C@H]3[C@H](O)[C@@H](O)C(O)O[C@@H]3CO)[C@@H]2O)O[C@H](CO)[C@@H](O[C@@H]2O[C@H](CO)[C@H](O)[C@H](O)[C@H]2O)[C@@H]1O (stereo partly drawn) [Galβ1,4GlcNAcβ1,3Galβ1,4Glc (LNnT), Galβ1,4GlcNAcβ1,3Galβ1,4Glc]	0	4	–	Relative rate (%) ST3N ([2]; acceptor 2.0 mM): 18%; Relative activity (%) Rat [3]: 4%
Asialofetuin: glycoprotein acceptor (Galβ1,3GalNAc-Thr/Ser and Galβ1,4GlcNAc-R)	26	18	sialic acid was incorporated; also recorded: best acceptor	–
GalNAcβ1,4(NeuAcα2-3)Galβ1,4Glcβ1-Cer	0.3	0	–	Relative rate (%) ST3 [5]: 1%
GalNAcβ1,4Galβ1,4Glcβ1-Cer [GalNAcβ1,4Galβ1,4Glcβ1-Cer (Asialo-GM2)]	0.5	0	–	–
Galβ1,3GalNAcβ1,4(NeuAcα2-3)Galβ1,4Glcβ1-Cer	47	0	also serving as substrates, but to a lesser extent	acceptor substrate for ST30 enzyme (in words) [1]: well
Galβ1,3GalNAcβ1,4Galβ1,4Glcβ1-Cer	88	8	preferred one	Relative rate (%) ST3 [5]: 64%; acceptor substrate for ST30 enzyme (in words) [1]: well
Galβ1,4GlcNAcβ1,3Galβ1,4Glcβ1-Cer [Galβ1,4GlcNAcβ1,3Galβ1,4Glcβ1-Cer (nLc4)]	–	–	also serving as substrates, but to a lesser extent	–
Galβ1,4Glcβ1-Cer [Galβ1,4Glcβ1-Cer (LacCer)]	0.1	0	low but significant level incorporation	–
NeuAcα2,3Galβ1,4Glcβ1-Cer [NeuAcα2,3Galβ1,4Glcβ1-Cer (GM3)]	0.1	0	–	–
intact fetuin: glycoprotein examined as acceptor	–	–	not any significant amount of sialic acid incorporated	–
α1 -acid glycoprotein: intact glycoprotein examined as acceptor	–	–	not any significant amount of sialic acid incorporated	–
B1	–	–	–	specific activity [6]: 8-10 units/mg protein
B2	–	–	–	specific activity [6]: 8-10 units/mg protein
